# Patent US8853391B2, “Tricyclic azaindoles” (Merck Patent GmbH, priority 2008, dated 2014)
# Molecular target: Src (Homo sapiens, UniProt P12931)
# Assay: Src kinase inhibition (IC50)
# Format: biochemical
# Excerpt: Other assays are known from the literature and could readily be performed by the person skilled in the art (see, for example, Dhanabal et al., Cancer Res. 59:189-197; Xin et al., J. Biol. Chem. 274:9116-9121; Sheu et al., Anticancer Res. 18:4435-4441; Ausprunk et al., Dev. Biol. 38:237-248; Gimbrone et al., J. Natl. Cancer Inst. 52:413-427; Nicosia et al., In Vitro 18:538-549).
# Chain of Src (P12931 whole entry, species assumed): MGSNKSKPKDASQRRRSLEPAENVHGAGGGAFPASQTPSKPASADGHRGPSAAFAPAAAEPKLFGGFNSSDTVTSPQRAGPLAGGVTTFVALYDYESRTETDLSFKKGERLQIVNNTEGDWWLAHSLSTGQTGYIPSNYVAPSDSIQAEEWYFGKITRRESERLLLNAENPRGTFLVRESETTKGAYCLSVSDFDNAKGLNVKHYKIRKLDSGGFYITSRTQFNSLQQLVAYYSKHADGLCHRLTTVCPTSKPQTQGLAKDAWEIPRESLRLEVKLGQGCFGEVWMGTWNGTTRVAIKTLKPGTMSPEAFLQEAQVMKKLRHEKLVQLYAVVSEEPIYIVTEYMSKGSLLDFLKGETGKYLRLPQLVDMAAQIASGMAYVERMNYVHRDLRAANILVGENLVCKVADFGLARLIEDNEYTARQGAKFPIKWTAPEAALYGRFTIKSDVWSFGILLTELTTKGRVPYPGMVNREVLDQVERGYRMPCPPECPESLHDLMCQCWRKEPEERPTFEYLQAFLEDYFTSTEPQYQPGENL
row,SMILES,IC50 [nM]
1,"CC(=O)N1CCc2[nH]c3nccc(Nc4c(Cl)ccc5c4OCO5)c3c2C1 [Example 15, 1-[4-(5-Chloro-benzo[1,3]dioxol-4-ylamino)-5,7,8,9-tetrahydro-dipyrido[2,3-b;3′,4′-d]pyrrol-6-yl]-ethanone]",11 to 100
2,"O=C(c1ccccc1)N1CCc2[nH]c3nccc(Nc4c(Cl)ccc5c4OCO5)c3c2C1 [Example 67, [4-(5-Chloro-benzo[1,3]-dioxol-4-ylamino)-5,7,8,9-tetrahydro-dipyrido[2,3-b;3′,4′-d]pyrrol-6-yl]-phenyl-methanone]",101 to 1000
3,"O=C(C1CC1)N1CCc2[nH]c3nccc(Nc4c(Cl)ccc5c4OCO5)c3c2C1 [Example 68, [4-(5-Chloro-benzo[1,3]-dioxol-4-ylamino)-5,7,8,9-tetrahydro-dipyrido[2,3-b;3′,4′-d]pyrrol-6-yl]-cyclopropyl-methanone]",101 to 1000
4,"O=C(C1CCC1)N1CCc2[nH]c3nccc(Nc4c(Cl)ccc5c4OCO5)c3c2C1 [Example 69, [4-(5-Chloro-benzo[1,3]-dioxol-4-ylamino)-5,7,8,9-tetrahydro-dipyrido[2,3-b;3′,4′-d]pyrrol-6-yl]-cyclobutyl-methanone]",101 to 1000

# The next lines start with the values.
row,IC50 [nM],SMILES
1,101 to 1000,"O=C(C1CCCC1)N1CCc2[nH]c3nccc(Nc4c(Cl)ccc5c4OCO5)c3c2C1 [Example 70, [4-(5-Chloro-benzo[1,3]-dioxol-4-ylamino)-5,7,8,9-tetrahydro-dipyrido[2,3-b;3′,4′-d]pyrrol-6-yl]-cyclopentyl-methanone]"
2,101 to 1000,"O=C(C1CCCCC1)N1CCc2[nH]c3nccc(Nc4c(Cl)ccc5c4OCO5)c3c2C1 [Example 71, [4-(5-Chloro-benzo[1,3]-dioxol-4-ylamino)-5,7,8,9-tetrahydro-dipyrido[2,3-b;3′,4′-d]pyrrol-6-yl]-cyclohexyl-methanone]"
